Assay results: PMC7718890 (Scientific Reports, 2020)
Read-outs that look alike come from different tables or passages of the source.

Molecular target: CarD·RNAP binding (CarD association with RPo) (Mycobacterium tuberculosis, UniProt P9WGY7+P9WGY9+P9WJG3, D68C)
[1] = read-out: CarD-BODIPY-FL assay CCG sample IC50
[2] = read-out: CarD-BODIPY-FL assay Powder sample IC50

| Structure (SMILES) | IC50 [1] | IC50 [2] |
| --- | --- | --- |
| CN(C)c1ncnc(Oc2ccc(Cl)cc2)c1[N+](=O)[O-] [CCG-247600] | 250 µM | 132 µM |
| CCC(=O)Nc1cccc2c(NC(=O)CC)cccc12 [CCG-53654] | 15 µM | 188 µM |
| O=C(NC(=O)N1CCCC1)C1CCN(c2cnc3ccccc3n2)CC1 [CCG-52363] | 60 µM | 200 µM |
| Cc1cc2c(NC(=O)Nc3ccccc3)cccc2nn1 [CCG-237488] | 25 µM |  |
| O=C(O)c1ccc(-c2nc3ccc(-c4ccc5nc(-c6ccc(C(=O)O)cc6)[nH]c5c4)cc3[nH]2)cc1 [CCG-249580] | 263 µM | 202 µM |
| NC(=O)c1ccc(CC(=O)c2ccc(Cl)cc2)cc1 [CCG-251660] | 106 µM | 37 µM |
| CC(=O)c1sc2nsc(SCCN3CCCC3)c2c1N [CCG-239496] | 90 µM | 47 µM |
| CC(=O)Nc1ccc(NC(=O)c2ccccc2C(=O)O)cn1 [CCG-52160] | 37 µM | 680 µM |
| COC(=O)c1noc(C)c1C(=O)/C=C/N1CCCCC1 [CCG-42210] | 106 µM | 85 µM |
| CC(=O)Nc1ccc(NC(=O)c2nccnc2C(=O)O)cn1 [CCG-52573] | 78 µM | 160 µM |
